# Legend:
# [1] = tested on: HIV-1 (IIIB strain clone 2); experiment: Synergy of anti-HIV activity, viral reverse transcriptase activity in supernatant of infected MT-4 cells (checker board); format: cell-based
# Experimental: Human T cell line Molt-4 cells persistently infected with HIV-1 (IIIB strain clone 2) were cultured in RPMI-1640 medium supplemented with 10% fetal calf serum, and the supernatant was filtered and stored at -80° C. after the virus titer was determined.
# The combination of these two drugs was conducted by the checker board method using 96-well microplates. […] After 4 hours, 50 μl of the culture supernatant of the above HIV-1 IIIB strain clone 2 was added, at the same time 50 μl of CDIMI in two-fold dilution was also added, followed by incubation in 5% CO2 incubator at 37° C. for 5 days.
# Virus titers in the culture supernatant were calculated by taking viral reverse transcriptase activity as an index determined by the following method:
# To 100 μl of a reaction mixture containing 50 mM Tris-HCl, pH 8.3, 150 mM KCl, 10 mM MgCl2, 0.1% Nonidet P-40, 10 mM dithiothreitol, 5 μg/l poly(A), 5 μg/ml (dT)12-18, and 1 μCi [^3 H]dTTP was added 10 μl of the culture supernatant, and incubated at 37° C. for 3 hours. The reaction mixture was chilled on ice and transferred by a cell harvester to a DEAE-Filtermat. The filter was washed with 5% Na2 HPO4.12H2 O and H2 O, and the radioactivity incorporated in DNA was measured by an LKB Beta Plate scintillation counter to determine viral reverse transcriptase activity.
# On the assumption that the inhibition of the two anti-HIV compounds was additive, virus growth inhibition rate was calculated on all combinations of concentrations according to the formula (I)
# wherein Z means an additive inhibition rate, X is an inhibition rate of CDIMI and Y is an inhibition rate of the other anti-HIV compound.
# When the measured value is greater than the additive inhibition rate, namely, the value is more than 0 in Table 3, it is judged as having synergy. Synergy volume is designated as total sum of values more than 0 in Table 3.
# Addition to cells of saquinavir and foscarnet was done at the same time as that of CDIMI when the virus was infected. […]
# F227C = experiment: microbe, parasite or virus in culture; format: cell-based, HIV; settings: Human immunodeficiency virus 1, MT4, 96 h
# Experimental: (§1) The mutant clones' cDNAs were transfected to SW480 cells. The produced mutant viruses were infected to MT-4 cells in the same method as described in Experiment 1 in the presence of the drug. After 4 days, viral growth was assayed using reverse transcriptase activity as a marker.
# NL432 (Wild strain) = experiment: microbe, parasite or virus in culture; format: cell-based, HIV; settings: Human immunodeficiency virus 1, MT4, 96 h
# Experimental: as §1
# D67N + K70R = experiment: microbe, parasite or virus in culture; format: cell-based, HIV
# Experimental: as §1
# L234I = experiment: microbe, parasite or virus in culture; format: cell-based, HIV; settings: Human immunodeficiency virus 1, MT4, 96 h
# Experimental: as §1
# T215Y = experiment: microbe, parasite or virus in culture; format: cell-based, HIV
# Experimental: as §1
# T215Y + L234I = experiment: microbe, parasite or virus in culture; format: cell-based, HIV
# Experimental: as §1
# V106A + F227L = experiment: microbe, parasite or virus in culture; format: cell-based, HIV; settings: Human immunodeficiency virus 1, MT4, 96 h
# Experimental: as §1
# Y181C = experiment: microbe, parasite or virus in culture; format: cell-based, HIV; settings: Human immunodeficiency virus 1, MT4, 96 h
# Experimental: as §1
# [2] = tested on: CDIMI resistant or AZT resistant mutant clones of HIV; experiment: Cross resistance of CDIMI resistant and AZT resistant mutant clones; format: cell-based
# Experimental: as §1
# [3] = tested on: HIV-1 IIIB strain clone 3; experiment: Suppression of the emergence of drug resistant variants in M 8166 cells; format: cell-based; settings: for Week of emergence of resistant mutants: CDIMI 1 ng/ml, ddC 50 ng/ml at start, doubled on viral growth; for Ratio of resistance compared to parent strain: isolated resistant virus vs parent strain
# Experimental: an T cell line Molt-4 cells persistently infected with HIV-1 (IIIB strain clone 3) were cultured in RPMI-1640 medium supplemented with 10% fetal calf serum, the supernatant was filtered and stored at […], after the virus titer was determined.
# One ml of the above medium containing 10^6 cells of M 8166 was added to each well of 12-well plates, and 100 μl of the above HIV-1 IIIB strain clone 3 was added, and incubated for 2 hours for virus infection. Cells were washed with the above medium, and 4 ml of the medium containing CDIMI or other anti-HIV compounds alone or their combination was added to each well and incubated in 5% CO2 incubator at 37° C. CDIMI was added at 1 ng/ml and ddC was added at 50 ng/ml respectively and the same concentrations of them were added for the combination. Cells were subcultured twice a week, and when viral growth was observed, the drug concentration of the anti-HIV compound was doubled. In the case that no viral growth was observed, the drug concentration was kept the same as that of the last culture.
# Virus titer was determined using viral reverse transcriptase activity as a marker by the following method.
# To 100 μl of the reaction mixture containing 50 mM Tris-HCl, pH 8.3, 150 mM KCl, 10 mM MgCl2, 0.1% Nonidet P-40, 10 mM dithiothreitol, 5 μg/ml poly(A), 5 μg/ml (dT) 12-18, and 1 μCi [^3 H] dTTP was added 10 μl of the culture supernatant, and incubated at 37° C. for 3 hours. The reaction mixture was chilled on ice and collected by a cell harvester on a DEAE-Filtermat. The filter was washed with 5% Na2 HP04.12H2 O and H2 O, and the radioactivity incorporated in DNA was measured by an LKB Beta Plate scintillation counter to determine viral reverse transcriptase activity.
# When virus growth was observed, viruses were isolated and the sensitivity to each active ingredient was assayed by the usual method.
# [4] = Human immunodeficiency virus 1, MT4, 96 h
smiles,measurement,setting,value
"CC(C)c1nc(COC(N)=O)n(Cc2ccncc2)c1Sc1cc(Cl)cc(Cl)c1 [CDIMI, 2-carbamoyloxymethyl-5-(3,5-dichlorophenylthio)-4-iropropyl-1-(pyridin-4-yl) methyl-1H-imidazole]",inhibition at 0.005 µg/mL,"[1]; Human immunodeficiency virus 1, IIIB, MT4, read-out: inhibition rate X of CDIMI",99.6%
same,reverse transcriptase inhibition rate (%),"[1]; ddI 0 ng/ml (Table 4), lines in order CDIMI 5, 2.5, 1.25, 0.625, 0.313, 0.16, 0.08 ng/ml, 7200 min",99.01%
same,EC50,F227C,2.4 ng/mL
same,EC90,F227C,9.8 ng/mL
same,EC50,NL432 (Wild strain),0.31 ng/mL
same,EC90,NL432 (Wild strain),1.1 ng/mL
same,sensitivity of strain,D67N + K70R; D67N plus K70R,equivalent to that of the wild strain
same,EC50,D67N + K70R; [4],0.31 ng/mL
same,EC90,D67N + K70R; [4],1 ng/mL
same,EC50,L234I,6.8 ng/mL
same,EC90,L234I,14 ng/mL
same,EC50,T215Y; [4],0.17 ng/mL
same,EC90,T215Y; [4],0.4 ng/mL
same,sensitivity of strain,T215Y; T215Y,equivalent to that of the wild strain
same,EC50,T215Y + L234I; [4],0.69 ng/mL
same,EC90,T215Y + L234I; [4],2.7 ng/mL
same,sensitivity of strain,T215Y + L234I; T215Y plus L234I,sensitive to CDIMI and AZT at the same level as the wild strain's
same,EC50,V106A + F227L,117 ng/mL
same,EC90,V106A + F227L,310 ng/mL
same,EC50,Y181C,4.2 ng/mL
same,EC90,Y181C,18 ng/mL
same,cross resistance,[2],do not show cross resistance
same,Week of emergence of resistant mutants,[3],4 weeks
same,Ratio of resistance compared to parent strain,[3],10 times
"Nc1ccn([C@H]2CC[C@@H](CO)O2)c(=O)n1 [ddC, dideoxycytidine, reference compound]",Week of emergence of resistant mutants,[3],1 weeks
same,Ratio of resistance compared to parent strain,[3],20 times
"Cc1cn([C@H]2C[C@H](N=[N+]=[N-])[C@@H](CO)O2)c(=O)[nH]c1=O [AZT, azidodeoxythymidine, reference compound]",inhibition at 0.0008 µg/mL,"[1]; Human immunodeficiency virus 1, IIIB, MT4, read-out: inhibition rate Y of the other anti-HIV compound",43.4%

# Reference: patent US6083958A, “Anti-HIV composition containing imidazole derivative” (Shionogi & Co., Ltd., priority 1996, dated 2000)
